# According to US20260263651A1, “WOUND DRESSING” (UNIVERSITY OF SUNDERLAND, priority 2023, published 2026):
# What was measured:
# Format in all cases: cell-based
# Staphylococcus aureus [1] = test: Microbiological evaluation of overnight bacteria suspensions, modified alginate wound dressing with absorbed substrate on agar; conditions: SA overnight culture, 24 h incubation at 37° C.
# Procedure: (§1) ACTIVHEAL® simply A (10×20 cm) non-adhesive foam samples were provided by Advanced Medical Solutions Ltd. The wound dressings were cut into ~5-10×5-10 mm squares, using an ethanol washed pair of scissors. A maximum of 0.20 g of the material was added into 10 mL DI water, and the pH was adjusted to ~3 by the addition of 0.1 M aq. HCl solution. The solution was stirred for 10 mins at room temperature, followed by the addition of 0.33 g EDC •HCl (1.7 mmol) and the pH was maintained at ~3 by the addition of 0.1 M aq. HCl solution. The solution was stirred at room temperature for 10 mins followed by the addition of 0.88 g compound 8 which was dissolved in DMSO or DMF. The mixture was stirred at room temperature for 48 h. The wound dressings were filtered and were washed with ethanol. To ensure the full removal of any non-coupled amide (8), the foam samples were resuspended in ethanol, stirred for 10 mins and filtered, and this process was repeated until the amide (8) was not detectable from the filtrate (this could be maintained by TLC or HPLC evaluation). The samples were dried in a vacuum oven for 3-4 h.
# (§2) The aqueous solution of 3a or 3b was prepared by the following: the desired amount of the enzymatic substrate (3.0 mg for 300 mg/L, 6.0 mg for 600 mg/L, 9.0 mg for 900 mg/L, 15.0 mg for 1500 mg/L, and 30.0 mg for 3000 mg/L) was weighed out on a 4 decimal place balance within ±0.3 mg error limit into a 10 mL volumetric flask and was adjusted to 10.0 mL with DI water. The solutions were absorbed into the foam samples and dried in a vacuum oven at 40° C. overnight.
# To model fluid exudate from a chronic wound, the wound dressing made according to ‘Modification of ActivHeal® Alginate’, above, was placed into an agar plate and the test pathogen was smeared over the surface of the agar.
# The enzymatic substrates were tested in 4 different concentrations (300, 600, 900 and 3000 mg/L) using DI water as a solvent, and the solutions were absorbed into the wound dressing samples, which were dried overnight under vacuum at 40° C.
# Two Gram negative strains (Escherichia coli—EC and Pseudomonas aeruginosa—PSA) and a Gram positive bacteria (Staphylococcus aureus—SA) were evaluated against the dimethyl (3a) and the diethyl (3b) substituted substrate. The overnight cultures were directly smeared from LB broth onto Columbia blood agar without measuring the OD. The wound dressings with the enzymatic substrate absorbed were placed onto the agar and were incubated overnight (see FIGS. 2-7).
# Pseudomonas aeruginosa = test: Microbiological evaluation of standardised bacterial suspensions, modified wound dressing with absorbed substrate on agar; design: key to Observable colour change: − indicates no colour change; +− indicates relatively discernible blue colour change; + indicates a moderately strong blue colour change; ++ indicates a strong blue colour change
# Procedure: as §1, §2
# (§3) Bacterial strains were routinely cultured from working stocks in Tryptic Soy Broth (TSB) and incubated at 37° C. overnight with shaking at 150 RPM. Overnight cultures were centrifuged at 3000×g for 5 minutes, the supernatant discarded, and the pellet resuspended in 10 mL phosphate buffered saline (PBS). Bacterial inoculums were standardised by optical density at 600 nm on an Amersham Biosciences Ultrospec 10 spectrophotometer (Amersham Biosciences, Amersham, UK) to contain between 1 and 3×10^8 CFU/mL.
# (§4) However, rapid evaluation of lower bacteria concentrations is essential for the desired clinical application. […] The solutions were absorbed into the wound dressing samples, which were dried overnight under vacuum at 40° C.
# (§5) Two Gram negative strains (Escherichia coli—EC and Pseudomonas aeruginosa—PSA) and a Gram-positive bacterium (Staphylococcus aureus—SA) were evaluated. The bacteria were incubated overnight, centrifuged at 3000×g for 5 mins, the supernatant was discarded, and the residue pellets were resuspended in 10 mL PBS. The inoculums were standardised by measuring the optical density at 600 nm to assure a 1-3×10^8 CFU/mL. The standardised solutions were further diluted to prepare 1-3×10^6 and 1-3×10^4 CFU/mL suspension. 1×10^6 CFU would be an ideal breakpoint for a positive result, as this concentration coincides well with a level of colonisation that would likely go on to produce an infection.
# (§6) 100 μL bacterial suspensions were smeared over agar plates. Wound dressing samples were added to the top of the agar and were rolled over a few times (to ensure a full coverage and to ease the visibility of the colour change). The plates were incubated at 37° C., and the results were recorded after 24 h, after 48 h, after 72 h. The results are shown in Table 3-5; − indicates no colour change, +− indicates relatively discernible blue colour change, + indicates a moderately strong blue colour change and ++ indicates a strong blue colour change.
# Staphylococcus aureus [2] = test: as above; design: key to Observable colour change: − indicates no colour change; +− indicates relatively discernible blue colour change; + indicates a moderately strong blue colour change; ++ indicates a strong blue colour change; conditions: for colour change: SA
# Procedure: as §1, §2, §3, §4, §5, §6
compound,measurement,setting,value
"CC(C)C[C@H](N)C(=O)Nc1ccc(N(C)C)cc1.Cl [3a, (2S)-2-amino-N-[4-(dimethylamino)phenyl]-4-methyl-pentanamide hydrochloride]",Observable colour change,Staphylococcus aureus [1]; substrate 300 mg/L,None
same,Observable colour change,Staphylococcus aureus [1]; substrate 600 mg/L,Pale blue
same,Observable colour change,Staphylococcus aureus [1]; substrate 900 mg/L,None
same,Observable colour change,Staphylococcus aureus [1]; substrate 3000 mg/L,Light blue
same,Observable colour change,"Pseudomonas aeruginosa; PSA 10^4, substrate 300 mg/L, 24 h at 37° C.",−
same,Observable colour change,"Pseudomonas aeruginosa; PSA 10^4, substrate 300 mg/L, 48 h at 37° C.",−
same,Observable colour change,"Pseudomonas aeruginosa; PSA 10^4, substrate 300 mg/L, 72 h at 37° C.",+
same,Observable colour change,"Pseudomonas aeruginosa; PSA 10^4, substrate 900 mg/L, 24 h at 37° C.",−
same,Observable colour change,"Pseudomonas aeruginosa; PSA 10^4, substrate 900 mg/L, 48 h at 37° C.",+−
same,Observable colour change,"Pseudomonas aeruginosa; PSA 10^4, substrate 900 mg/L, 72 h at 37° C.",++
same,Observable colour change,"Pseudomonas aeruginosa; PSA 10^4, substrate 1500 mg/L, 24 h at 37° C.",−
same,Observable colour change,"Pseudomonas aeruginosa; PSA 10^4, substrate 1500 mg/L, 48 h at 37° C.",−
same,Observable colour change,"Pseudomonas aeruginosa; PSA 10^4, substrate 1500 mg/L, 72 h at 37° C.",++
same,Observable colour change,"Pseudomonas aeruginosa; PSA 10^6, substrate 300 mg/L, 24 h at 37° C.",−
same,Observable colour change,"Pseudomonas aeruginosa; PSA 10^6, substrate 300 mg/L, 48 h at 37° C.",−
same,Observable colour change,"Pseudomonas aeruginosa; PSA 10^6, substrate 300 mg/L, 72 h at 37° C.",+
same,Observable colour change,"Pseudomonas aeruginosa; PSA 10^6, substrate 900 mg/L, 24 h at 37° C.",−
same,Observable colour change,"Pseudomonas aeruginosa; PSA 10^6, substrate 900 mg/L, 48 h at 37° C.",−
same,Observable colour change,"Pseudomonas aeruginosa; PSA 10^6, substrate 900 mg/L, 72 h at 37° C.",++
same,Observable colour change,"Pseudomonas aeruginosa; PSA 10^6, substrate 1500 mg/L, 24 h at 37° C.",−
same,Observable colour change,"Pseudomonas aeruginosa; PSA 10^6, substrate 1500 mg/L, 48 h at 37° C.",+−
same,Observable colour change,"Pseudomonas aeruginosa; PSA 10^6, substrate 1500 mg/L, 72 h at 37° C.",+
same,colour change,"Pseudomonas aeruginosa; PSA 10^8, 10^6 or 10^4 CFU, after 72 h, every tested substrate concentration",moderate or strong blue colour changes
same,Observable colour change,"Pseudomonas aeruginosa; PSA 10^8, substrate 300 mg/L, 24 h at 37° C.",−
same,Observable colour change,"Pseudomonas aeruginosa; PSA 10^8, substrate 300 mg/L, 48 h at 37° C.",−
same,Observable colour change,"Pseudomonas aeruginosa; PSA 10^8, substrate 300 mg/L, 72 h at 37° C.",+
same,Observable colour change,"Pseudomonas aeruginosa; PSA 10^8, substrate 900 mg/L, 24 h at 37° C.",−
same,Observable colour change,"Pseudomonas aeruginosa; PSA 10^8, substrate 900 mg/L, 48 h at 37° C.",+
same,Observable colour change,"Pseudomonas aeruginosa; PSA 10^8, substrate 900 mg/L, 72 h at 37° C.",++
same,Observable colour change,"Pseudomonas aeruginosa; PSA 10^8, substrate 1500 mg/L, 24 h at 37° C.",−
same,Observable colour change,"Pseudomonas aeruginosa; PSA 10^8, substrate 1500 mg/L, 48 h at 37° C.",+
same,Observable colour change,"Pseudomonas aeruginosa; PSA 10^8, substrate 1500 mg/L, 72 h at 37° C.",++
same,colour change,"Pseudomonas aeruginosa; PSA, substrate 900 or 1500 mg/L, printed in the 48 h paragraph",moderate or strong colour change
same,Observable colour change,"Staphylococcus aureus [2]; SA 10^4, substrate 300 mg/L, 24 h at 37° C.",−
same,Observable colour change,"Staphylococcus aureus [2]; SA 10^4, substrate 300 mg/L, 48 h at 37° C.",−
same,Observable colour change,"Staphylococcus aureus [2]; SA 10^4, substrate 300 mg/L, 72 h at 37° C.",−
same,Observable colour change,"Staphylococcus aureus [2]; SA 10^4, substrate 900 mg/L, 24 h at 37° C.",−
same,Observable colour change,"Staphylococcus aureus [2]; SA 10^4, substrate 900 mg/L, 48 h at 37° C.",−
same,Observable colour change,"Staphylococcus aureus [2]; SA 10^4, substrate 900 mg/L, 72 h at 37° C.",−
same,Observable colour change,"Staphylococcus aureus [2]; SA 10^4, substrate 1500 mg/L, 24 h at 37° C.",−
same,Observable colour change,"Staphylococcus aureus [2]; SA 10^4, substrate 1500 mg/L, 48 h at 37° C.",−
same,Observable colour change,"Staphylococcus aureus [2]; SA 10^4, substrate 1500 mg/L, 72 h at 37° C.",−
same,Observable colour change,"Staphylococcus aureus [2]; SA 10^6, substrate 300 mg/L, 24 h at 37° C.",−
same,Observable colour change,"Staphylococcus aureus [2]; SA 10^6, substrate 300 mg/L, 48 h at 37° C.",−
same,Observable colour change,"Staphylococcus aureus [2]; SA 10^6, substrate 300 mg/L, 72 h at 37° C.",−
same,Observable colour change,"Staphylococcus aureus [2]; SA 10^6, substrate 900 mg/L, 24 h at 37° C.",−
same,Observable colour change,"Staphylococcus aureus [2]; SA 10^6, substrate 900 mg/L, 48 h at 37° C.",−
same,Observable colour change,"Staphylococcus aureus [2]; SA 10^6, substrate 900 mg/L, 72 h at 37° C.",−
same,Observable colour change,"Staphylococcus aureus [2]; SA 10^6, substrate 1500 mg/L, 24 h at 37° C.",−
same,Observable colour change,"Staphylococcus aureus [2]; SA 10^6, substrate 1500 mg/L, 48 h at 37° C.",−
same,Observable colour change,"Staphylococcus aureus [2]; SA 10^6, substrate 1500 mg/L, 72 h at 37° C.",−
same,Observable colour change,"Staphylococcus aureus [2]; SA 10^8, substrate 300 mg/L, 24 h at 37° C.",−
same,Observable colour change,"Staphylococcus aureus [2]; SA 10^8, substrate 300 mg/L, 48 h at 37° C.",−
same,Observable colour change,"Staphylococcus aureus [2]; SA 10^8, substrate 300 mg/L, 72 h at 37° C.",−
same,Observable colour change,"Staphylococcus aureus [2]; SA 10^8, substrate 900 mg/L, 24 h at 37° C.",−
same,Observable colour change,"Staphylococcus aureus [2]; SA 10^8, substrate 900 mg/L, 48 h at 37° C.",−
same,Observable colour change,"Staphylococcus aureus [2]; SA 10^8, substrate 900 mg/L, 72 h at 37° C.",−
same,Observable colour change,"Staphylococcus aureus [2]; SA 10^8, substrate 1500 mg/L, 24 h at 37° C.",−
same,Observable colour change,"Staphylococcus aureus [2]; SA 10^8, substrate 1500 mg/L, 48 h at 37° C.",+−
same,Observable colour change,"Staphylococcus aureus [2]; SA 10^8, substrate 1500 mg/L, 72 h at 37° C.",+−
same,colour change,"Staphylococcus aureus [2]; 48 h paragraph, substrate 1500 mg/L","weak, but discernible colour change"
same,colour change,"Staphylococcus aureus [2]; after 72 h, substrate 1500 mg/L","weak, hardly visible colour change"
